Literature values as cited in patent publication US20220273698A1, “MEDICINAL AND/OR PHARMACEUTICAL COMPOSITIONS FOR INTRAVESICAL INSTILLATION, PREPARATION AND USE THEREOF” (priority 2019, published 2022).

Experiments:
[1] = oral medicine
[2] = taking PPS over a long time

pentosan polysulfate sodium [Elmiron]
active agent absorbed [1]: 5% | side effect [2]: pigmentary maculopathy
